Data as given in ChEMBL document CHEMBL1212753, “Inducible APOBEC3G-Vif double stable cell line as a high-throughput screening platform to identify antiviral compounds” (Antimicrob Agents Chemother, 2010).

Key:
[1] = Inhibition of HIV Vif by replicating virus inhibition assay; design: species or system Human immunodeficiency virus
[2] = Inhibition of HIV Vif induced human cytidine-deaminase degradation in double transgenic HEK293 cells constitutively expressing enhanced yellow fluorescent protein expressor (EYFP-A3G) fusion and Tet-Off controllable Vif protein after 24 hrs by fluorimetric assay; assay type: cell-based, Human immunodeficiency virus

With COc1ccccc1NC(=O)c1ccccc1Sc1ccc([N+](=O)[O-])cc1 the EC50 [1] was 3 µM and the EC50 [2] was 5.8 µM.
